Data taken from patent US20150344535A1, “NEUROTROPHIN-TYROSINE KINASE RECEPTOR SIGNALING” (THE UNIVERSITY OF QUEENSLAND, priority 2012, published 2015).

Assays:
motor neurons = test: Motor neuron survival in SOD1G93A mutant mice; type: in vivo, mouse
Protocol: To determine whether c29 could reduce neuron death in a motor neuron mouse model, 60 day postnatal SOD1G93A mutant mice were injected subcutaneously by osmotic pump with 5 mg/kg of TAT-c29, scrambled peptide, or the peptide vehicle. After 115 days postnatal, neuron survival in the […] was determined.

[1] = Long term potentiation (LTP) in the hippocampus in vivo; set-up: species or system mouse
Description: In further support of this, LTP was induced in mice by standard methods, as previously described: Kameda et al. Transl Psychiatry. 2012 Jan. 31; 2:e72. Activation of latent precursors in the hippocampus is dependent on long-term potentiation. […] BDNF acting via TrkB is well established to enhance this type of synaptic activity, including specifically hippocampal late-phase LTP at CA1-CA3 synapses (as measured here), and mice with reduced BDNF secretion show deficits in this LTP (e.g. Y. Lu et al., 2008; An et al., 2008; Ninan et al., 2010). […] In FIG. 13, c29 10 mg/kg: n=3 animals; c29 5 mg/kg: n=2 animals; scrambled 10 mg/kg: n=3 animals, c57: n=2 animals.

[2] = system: C7-8 spinal cord motor neurons; test: Motor neuron axotomy (median and ulnar nerve) in neonatal rat; type: in vivo; conditions: four day old rat, unilateral axotomy of the ulnar nerve, FIG. 7E
Protocol: Median and ulnar nerve axotomy was performed on 4 day-old Wistar rat pups as previously described (Cheema et al., 1996). Peptides (c29 and vehicle only; 100 nM) were applied via a 1 mm^3 cube of pluronic gel foam that was sutured to the proximal axonal stump (Cheema et al., 1996). After 5 days the animals were perfused with a 4% solution of paraformaldehyde in phosphate buffer. Cervical spinal cords were removed, after which serial sections were cut at 40 μm, mounted onto gelatin-coated slides and stained in 0.1% cresyl violet. Details of the counting procedure have been described previously (Cheema et al., 1994).
We next investigated whether c29 could prevent motor neuron death following growth factor withdrawal in vivo using a neonatal rat axotomy model. Following unilateral median and ulnar nerve transections of postnatal day 4 (P4) rat pups, c29 or the vehicle protein transduction domain (PTD4) was applied to the proximal site of transaction in a small cube of gel foam. After a 5-day recovery, the number of surviving C7-8 spinal cord motor neurons relative to the contralateral side was determined by histological counts. Such an axotomy causes 50% of the ipsilateral motor neurons to die (Cheema et al., 1996), with control peptide treatment having no effect on this degree of cell death (FIG. 7E, F). […]

## YARAAARNARAKRWNSCKQNKQGANSRPVNQTPPPEGEKL (TAT-c29 - Fusion of TAT with c29)
Motor neurons; 5 mg/kg subcutaneously by osmotic pump from 60 days postnatal, read at 115 days postnatal
  enhancement of motor neuron survival: 30%
Motor neurons; 5 mg/kg, 115 days postnatal, equivalent of wild-type
  motor neuron number: 10 motor neurons per section per dorsal horn
[1]; 5 mg/kg I.P, after the high frequency train
  LTP in the hippocampus: transient enhancement of LTP lasting only the first 6 minutes
[1]; 10 mg/kg i.p., vs scrambled peptide- or vehicle-treated animals
  LTP in the hippocampus: enhanced LTP
[2]
  protection from motor neuron loss: significant protection from motor neuron loss
